Legend:
CK1α = target: T1, CK1α (Homo sapiens, UniProt P48729+Q96SW2); test: HiBiT degradation assay, CK1α, Procedure A; format: cell-based
T1 construct: CSNK1A1-HiBit KI HEK293(LgBit) Cells; host or cells: HEK293(LgBit) knock-in cells
Method in brief: (§1)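 Six-hour treatment at 37° C, ten doses between 10 μM and 0.005 μM, then HiBiT lytic luminescence. Fitted DC50 and Ymin.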

GSPT1 = GSPT1 (Homo sapiens, UniProt P15170+Q96SW2); test: HiBiT degradation assay, GSPT1, Procedure A; format: cell-based; design: HiBit-GSPT1 KI HEK293(LgBit) Cells; host or cells: HEK293(LgBit) knock-in cells
GSPT1, sequence (P15170 whole entry): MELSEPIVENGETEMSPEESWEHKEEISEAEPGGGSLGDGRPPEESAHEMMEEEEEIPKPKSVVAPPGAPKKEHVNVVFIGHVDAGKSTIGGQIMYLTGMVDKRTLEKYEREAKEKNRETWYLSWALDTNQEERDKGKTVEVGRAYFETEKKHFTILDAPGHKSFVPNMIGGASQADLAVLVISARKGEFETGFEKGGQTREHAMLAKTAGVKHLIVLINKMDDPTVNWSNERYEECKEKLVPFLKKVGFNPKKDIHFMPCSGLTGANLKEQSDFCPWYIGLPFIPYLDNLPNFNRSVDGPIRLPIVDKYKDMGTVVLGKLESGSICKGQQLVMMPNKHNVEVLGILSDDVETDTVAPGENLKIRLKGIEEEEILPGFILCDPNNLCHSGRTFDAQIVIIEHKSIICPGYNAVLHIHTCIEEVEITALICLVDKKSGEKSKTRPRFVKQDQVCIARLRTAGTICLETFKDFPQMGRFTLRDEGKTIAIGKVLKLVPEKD
GSPT1, sequence (Q96SW2 whole entry): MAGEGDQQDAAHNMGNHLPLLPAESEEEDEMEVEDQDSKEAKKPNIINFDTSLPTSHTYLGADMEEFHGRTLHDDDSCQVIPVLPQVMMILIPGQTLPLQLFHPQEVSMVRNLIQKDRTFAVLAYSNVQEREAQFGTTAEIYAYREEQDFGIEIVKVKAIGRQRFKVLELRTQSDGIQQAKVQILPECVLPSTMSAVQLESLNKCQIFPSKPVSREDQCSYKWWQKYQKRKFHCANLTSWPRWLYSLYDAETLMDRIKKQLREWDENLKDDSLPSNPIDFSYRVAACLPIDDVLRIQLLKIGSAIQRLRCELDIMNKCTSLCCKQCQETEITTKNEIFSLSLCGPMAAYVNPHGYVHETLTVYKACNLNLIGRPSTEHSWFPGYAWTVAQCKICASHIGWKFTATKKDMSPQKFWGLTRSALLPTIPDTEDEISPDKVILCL
GSPT1, sequence (Q16531 whole entry partner): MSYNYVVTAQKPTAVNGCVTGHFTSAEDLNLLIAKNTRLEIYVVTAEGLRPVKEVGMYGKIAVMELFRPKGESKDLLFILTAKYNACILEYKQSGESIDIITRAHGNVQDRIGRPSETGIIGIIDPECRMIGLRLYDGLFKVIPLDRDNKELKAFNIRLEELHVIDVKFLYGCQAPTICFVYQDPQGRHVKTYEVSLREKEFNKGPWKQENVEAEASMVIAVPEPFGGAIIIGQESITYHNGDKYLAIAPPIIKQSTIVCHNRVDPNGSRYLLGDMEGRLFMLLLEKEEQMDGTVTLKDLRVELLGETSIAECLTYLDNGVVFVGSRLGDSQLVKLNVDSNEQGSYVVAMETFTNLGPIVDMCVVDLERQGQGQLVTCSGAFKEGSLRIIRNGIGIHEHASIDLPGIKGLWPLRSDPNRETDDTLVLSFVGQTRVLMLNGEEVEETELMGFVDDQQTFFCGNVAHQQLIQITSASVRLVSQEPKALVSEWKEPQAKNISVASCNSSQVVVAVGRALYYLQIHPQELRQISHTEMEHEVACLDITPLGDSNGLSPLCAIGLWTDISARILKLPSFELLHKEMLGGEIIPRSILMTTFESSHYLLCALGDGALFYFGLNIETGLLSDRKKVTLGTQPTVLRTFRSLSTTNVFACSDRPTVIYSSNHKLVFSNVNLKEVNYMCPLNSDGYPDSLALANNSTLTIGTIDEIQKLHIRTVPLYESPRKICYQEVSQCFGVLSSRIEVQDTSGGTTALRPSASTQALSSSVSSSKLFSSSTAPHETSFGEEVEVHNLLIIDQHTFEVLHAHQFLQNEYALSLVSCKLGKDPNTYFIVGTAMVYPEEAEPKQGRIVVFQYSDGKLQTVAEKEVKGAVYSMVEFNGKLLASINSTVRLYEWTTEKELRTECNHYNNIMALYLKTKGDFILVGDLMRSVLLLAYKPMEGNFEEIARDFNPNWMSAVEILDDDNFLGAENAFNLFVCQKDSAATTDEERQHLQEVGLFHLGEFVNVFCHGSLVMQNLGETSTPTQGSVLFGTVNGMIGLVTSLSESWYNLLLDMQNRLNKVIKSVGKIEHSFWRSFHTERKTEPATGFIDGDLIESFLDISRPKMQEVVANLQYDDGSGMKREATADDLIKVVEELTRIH
Method in brief: as §1

T1 sequence (P48729 whole entry): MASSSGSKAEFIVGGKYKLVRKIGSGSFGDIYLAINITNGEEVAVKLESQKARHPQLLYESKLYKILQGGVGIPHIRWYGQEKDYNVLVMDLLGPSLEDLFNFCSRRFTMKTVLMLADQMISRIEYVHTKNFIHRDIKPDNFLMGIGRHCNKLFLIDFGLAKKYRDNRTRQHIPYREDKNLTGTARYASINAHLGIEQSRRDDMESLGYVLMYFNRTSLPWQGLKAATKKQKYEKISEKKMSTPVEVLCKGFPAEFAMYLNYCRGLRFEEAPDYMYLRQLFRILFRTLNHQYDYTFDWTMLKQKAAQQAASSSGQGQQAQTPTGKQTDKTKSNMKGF
T1 sequence (Q96SW2 whole entry): as the sequence (Q96SW2 whole entry) above
T1 sequence (Q16531 whole entry partner): as the sequence (Q16531 whole entry partner) above

Row | SMILES | CK1α Ymin (CK1α; six hours) | DC50 (CK1α; six hours) | DC50 (GSPT1; six hours) | GSPT1 Ymin (GSPT1; six hours) | CK1α Ymin (CK1α; six hours incubation) | DC50 (CK1α; six hours incubation) | DC50 (GSPT1; six hours incubation) | GSPT1 Ymin (GSPT1; six hours incubation)
1 | Cc1ncc(-c2c(-c3ccc4c(c3)CN(C3CCC(=O)NC3=O)C4=O)nc(C3CC3)n2C)cn1 (stereo not shown) [Example 547, 3-(5-(2-cyclopropyl-1-methyl-5-(2-methylpyrimidin-5-yl)-1H-imidazol-4-yl)-1-oxoisoindolin-2-yl)piperidine-2,6-dione] | D (D = >10- 25% remaining) | < 25 nM | ≥ 25 nM | F (F = >75-100% remaining) |  |  |  | 
2 | Cc1ccc(-c2c(-c3ccc4c(c3)CN(C3CCC(=O)NC3=O)C4=O)cnn2C)o1 (stereo not shown) [Example 365] |  |  |  |  | D (D = >10- 25% remaining) | ≥ 25 nM | ≥ 25 nM | F (F = >75-100% remaining)
3 | Cc1cc(-c2c(-c3ccc4c(c3)CN(C3CCC(=O)NC3=O)C4=O)cnn2C)ccn1 (stereo not shown) [Example 368] |  |  |  |  | E (E = >25-75% remaining) | < 25 nM | < 25 nM | F (F = >75-100% remaining)
4 | COc1ccsc1-c1c(-c2ccc3c(c2)CN(C2CCC(=O)NC2=O)C3=O)cnn1C (stereo not shown) [Example 473] | E (E = >25-75% remaining) | < 25 nM | ≥ 25 nM | F (F = >75-100% remaining) |  |  |  | 
5 | Cn1cc(-c2ccc3c(c2)CN(C2CCC(=O)NC2=O)C3=O)nc1C1CCOCC1 (stereo not shown) [Example 532, 3-(5-(1-methyl-2-(tetrahydro-2H-pyran-4-yl)-1H-imidazol-4-yl)-1-oxoisoindolin-2-yl)piperidine-2,6-dione] | D (D = >10- 25% remaining) | < 25 nM | ≥ 25 nM | F (F = >75-100% remaining) |  |  |  | 
6 | Cc1ccc(-c2nc(-c3ccc4c(c3)CN(C3CCC(=O)NC3=O)C4=O)cn2C)cc1Cl (stereo not shown) [Example 564] | C (C = 0-10% remaining) | < 25 nM | < 25 nM | F (F = >75-100% remaining) |  |  |  | 
7 | Cn1ncc(-c2ccc3c(c2)CN(C2CCC(=O)NC2=O)C3=O)c1-c1ccsc1Cl (stereo not shown) [Example 131] |  |  |  |  | E (E = >25-75% remaining) | < 25 nM | ≥ 25 nM | F (F = >75-100% remaining)
8 | CN1N=CC(c2ccc3c(c2)CN(C2CCC(=O)NC2=O)C3=O)C1c1cnn(C2CC2)c1 (stereo not shown) [Example 376] |  |  |  |  | D (D = >10- 25% remaining) | < 25 nM | ≥ 25 nM | F (F = >75-100% remaining)
9 | COc1c(F)cccc1-c1c(-c2ccc3c(c2)CN(C2CCC(=O)NC2=O)C3=O)cnn1C (stereo not shown) [Example 107] |  |  |  |  | E (E = >25-75% remaining) | < 25 nM | ≥ 25 nM | F (F = >75-100% remaining)
10 | COc1ccc(Cl)c(-c2c(-c3ccc4c(c3)CN(C3CCC(=O)NC3=O)C4=O)cnn2C)c1 (stereo not shown) [Example 82] |  |  |  |  | E (E = >25-75% remaining) | < 25 nM | ≥ 25 nM | F (F = >75-100% remaining)
11 | Cc1ccc(-c2c(-c3ccc4c(c3)CN(C3CCC(=O)NC3=O)C4=O)cnn2C)c(F)c1 (stereo not shown) [Example 94] |  |  |  |  | D (D = >10- 25% remaining) | < 25 nM | ≥ 25 nM | F (F = >75-100% remaining)
12 | Cn1ncc(-c2ccc3c(c2)CN(C2CCC(=O)NC2=O)C3=O)c1-c1cc(F)ccc1Cl (stereo not shown) [Example 120] |  |  |  |  | E (E = >25-75% remaining) | ≥ 25 nM | ≥ 25 nM | F (F = >75-100% remaining)
13 | [2H]C([2H])([2H])n1ncc(-c2ccc3c(c2)CN(C2CCC(=O)NC2=O)C3=O)c1-c1ccc(OC(F)F)cc1 (stereo not shown) [Example 436, 3-(5-(5-(4-(difluoromethoxy)phenyl)-1-(methyl-d3)-1H-pyrazol-4-yl)-1-oxoisoindolin-2-yl)piperidine-2,6-dione] | D (D = >10- 25% remaining) | < 25 nM | ≥ 25 nM | F (F = >75-100% remaining) |  |  |  | 
14 | Cc1nn(C)cc1-c1c(-c2ccc3c(c2)CN(C2CCC(=O)NC2=O)C3=O)cnn1C (stereo not shown) [Example 373] |  |  |  |  | E (E = >25-75% remaining) | ≥ 25 nM | ≥ 25 nM | F (F = >75-100% remaining)

Further lines, results first:

Row | CK1α Ymin (CK1α; six hours) | DC50 (CK1α; six hours) | DC50 (GSPT1; six hours) | GSPT1 Ymin (GSPT1; six hours) | CK1α Ymin (CK1α; six hours incubation) | DC50 (CK1α; six hours incubation) | DC50 (GSPT1; six hours incubation) | GSPT1 Ymin (GSPT1; six hours incubation) | SMILES
15 | E (E = >25-75% remaining) | ≥ 25 nM | ≥ 25 nM | F (F = >75-100% remaining) |  |  |  |  | Cn1cnc(-c2ccc3c(c2)CN(C2CCC(=O)NC2=O)C3=O)c1-c1cnn(Cc2cccnc2)c1 (stereo not shown) [Example 503]
16 | E (E = >25-75% remaining) | ≥ 25 nM | ≥ 25 nM | F (F = >75-100% remaining) |  |  |  |  | Cn1cnc(-c2ccc3c(c2)CN(C2CCC(=O)NC2=O)C3=O)c1-c1cnc(N)nc1 (stereo not shown) [Example 485]
17 |  |  |  |  | E (E = >25-75% remaining) | ≥ 25 nM | ≥ 25 nM | F (F = >75-100% remaining) | O=C1CCC(N2Cc3cc(-c4c[nH]nc4-c4ccccn4)ccc3C2=O)C(=O)N1 (stereo not shown) [Example 118, 3-(1-oxo-5-(3-(pyridin-2-yl)-1H-pyrazol-4-yl)isoindolin-2-yl)piperidine-2,6-dione]
18 |  |  |  |  | D (D = >10- 25% remaining) | < 25 nM | < 25 nM | E (E = >25-75% remaining) | Cn1cnc(-c2ccc3c(c2)CN(C2CCC(=O)NC2=O)C3=O)c1-c1ccc(COc2ccccc2)cc1 (stereo not shown) [Example 311]
19 |  |  |  |  | E (E = >25-75% remaining) | < 25 nM | ≥ 25 nM | F (F = >75-100% remaining) | Cn1ncc(-c2ccc3c(c2)CN(C2CCC(=O)NC2=O)C3=O)c1-c1cccc(C#N)c1 (stereo not shown) [Example 123]
20 | D (D = >10- 25% remaining) | < 25 nM | ≥ 25 nM | F (F = >75-100% remaining) |  |  |  |  | CC(C)n1ncc(-c2ccc3c(c2)CN(C2CCC(=O)NC2=O)C3=O)c1-c1ccccc1 (stereo not shown) [Example 426, 3-(5-(1-isopropyl-5-phenyl-1H-pyrazol-4-yl)-1-oxoisoindolin-2-yl)piperidine-2,6-dione]
21 |  |  |  |  | E (E = >25-75% remaining) | < 25 nM | ≥ 25 nM | F (F = >75-100% remaining) | CC(C)c1ccccc1-c1c(-c2ccc3c(c2)CN(C2CCC(=O)NC2=O)C3=O)ncn1C (stereo not shown) [Example 182]
22 |  |  |  |  | D (D = >10- 25% remaining) | < 25 nM | < 25 nM | E (E = >25-75% remaining) | COc1c(F)cccc1-c1c(-c2ccc3c(c2)CN(C2CCC(=O)NC2=O)C3=O)ncn1C (stereo not shown) [Example 195]
23 |  |  |  |  | E (E = >25-75% remaining) | ≥ 25 nM | ≥ 25 nM | E (E = >25-75% remaining) | Cn1cnc(-c2ccc3c(c2)CN(C2CCC(=O)NC2=O)C3=O)c1-c1ccc(S(C)(=O)=O)cc1 (stereo not shown) [Example 306]
24 | E (E = >25-75% remaining) | < 25 nM | ≥ 25 nM | F (F = >75-100% remaining) |  |  |  |  | Cn1cnc(-c2ccc3c(c2)CN(C2CCC(=O)NC2=O)C3=O)c1-c1cnc2c(ccn2C)c1 (stereo not shown) [Example 499]
25 |  |  |  |  | D (D = >10- 25% remaining) | < 25 nM | ≥ 25 nM | F (F = >75-100% remaining) | COc1ccccc1-c1c(-c2ccc3c(c2)CN(C2CCC(=O)NC2=O)C3=O)ncn1C (stereo not shown) [Example 235]
26 |  |  |  |  | C (C = 0-10% remaining) | < 25 nM | < 25 nM | F (F = >75-100% remaining) | Cn1cnc(-c2ccc3c(c2)CN(C2CCC(=O)NC2=O)C3=O)c1-c1cnn(C2CC2)c1 (stereo not shown) [Example 326]
27 |  |  |  |  | D (D = >10- 25% remaining) | < 25 nM | ≥ 25 nM | F (F = >75-100% remaining) | Cn1cnc(-c2ccc3c(c2)CN(C2CCC(=O)NC2=O)C3=O)c1-c1ccccc1Cl (stereo not shown) [Example 175]
28 |  |  |  |  | C (C = 0-10% remaining) | < 25 nM | ≥ 25 nM | F (F = >75-100% remaining) | Cn1cnc(-c2ccc3c(c2)CN(C2CCC(=O)NC2=O)C3=O)c1-c1ccc(-c2ccc(C#N)cc2)cc1 (stereo not shown) [Example 299]
29 | C (C = 0-10% remaining) | < 25 nM | < 25 nM | E (E = >25-75% remaining) |  |  |  |  | Cn1cnc(-c2ccc3c(c2)CN(C2CCC(=O)NC2=O)C3=O)c1-c1ccc2ncsc2c1 (stereo not shown) [Example 502]
30 |  |  |  |  | E (E = >25-75% remaining) | ≥ 25 nM | ≥ 25 nM | F (F = >75-100% remaining) | O=C1CCC(N2Cc3cc(-c4sncc4-c4ccccc4)ccc3C2=O)C(=O)N1 (stereo not shown) [Example 31, 3-(1-Oxo-5-(4-phenylisothiazol-5-yl)isoindolin-2-yl) piperidine-2,6-dione]
31 |  |  |  |  | E (E = >25-75% remaining) | < 25 nM | ≥ 25 nM | F (F = >75-100% remaining) | Cn1cnc(-c2ccc3c(c2)CN(C2CCC(=O)NC2=O)C3=O)c1-c1ccccc1C1CC1 (stereo not shown) [Example 347]
32 |  |  |  |  | F (F = >75-100% remaining) | ≥ 25 nM | ≥ 25 nM | F (F = >75-100% remaining) | Cn1cnc(-c2ccc3c(c2)CN(C2CCC(=O)NC2=O)C3=O)c1-c1ccc(NC(=O)c2ccccc2)cc1 (stereo not shown) [Example 356]
33 |  |  |  |  | C (C = 0-10% remaining) | < 25 nM | < 25 nM | E (E = >25-75% remaining) | Cc1ccc(-c2c(-c3ccc4c(c3)CN(C3CCC(=O)NC3=O)C4=O)ncn2C)c(Cl)c1 (stereo not shown) [Example 198]
34 |  |  |  |  | C (C = 0-10% remaining) | < 25 nM | ≥ 25 nM | F (F = >75-100% remaining) | Cn1cnc(-c2ccc3c(c2)CN(C2CCC(=O)NC2=O)C3=O)c1-c1cccc(N)c1 (stereo not shown) [Example 343]

Source: patent publication US20240158370A1, “CK1 alpha AND DUAL CK1 alpha / GSPT1 DEGRADING COMPOUNDS” (Innovo Therapeutics, Inc., priority 2022, published 2024)
